Laboratory results from patent US8466291B2, “1,5-dideoxy-1,5-imino-D-glucitol compounds” (Academia Sinica, priority 2008, dated 2013).

Legend:
[1] = target: Bacteroids fragilis O-GlcNAcase (Bacteroides fragilis, UniProt Q5L8V6); experiment: Michaelis-Menten/Lineweaver-Burk kinetic inhibition of O-GlcNAcase with 4MU-NAG substrate; assay type: biochemical; details: for Selectivity (KI O-GlcNAcase/KI HEX): Bacteroids fragilis O-GlcNAcase over human HEX B, Table 1
Protocol: Bacteroids fragilis O-GlcNAcase, which is highly homologous to human O-GlcNAcase, was prepared as follows. Based on the genome sequence of B. fragilis (NCTC 9343) as disclosed in GenBank accession no. CR626927 (Oct. 23, 2008), a DNA fragment encoding the B. fragilis O-GlcNAcse was amplified via polymerase chain reaction (PCR), using the primers of: 5′-[…]-3′ (SEQ ID NO:1) (forward primer) and 5′-[…]-3′ (SEQ ID NO:2) (reverse primer). The PCR product was cloned into pGEM-T Easy vector (Promega) via cloning sites Nde1 and Xho1 and then subcloned into pET21b vector to produce expression plasmid pOGA, which encodes a fusion protein including O-GlcNAcase and a His6 tag at the C-terminus
Plasmid pOGA was transformed into E. coli BL21 (DE3) cells and a positive transformant was cultured in Luria-Bertani (LB) medium with ampicillin (100 μg/mL) overnight. The E. coli culture, transferred to fresh LB medium, was incubated at 37° C. and, when A600 of the culture reached 0.6, isopropyl-β-D-thiogalactopyranoside (final conc: 250 μM) was added to induce expression of O-GlcNAcse. The induced cells were further cultured at 16° C. overnight, harvested, and disrupted to produce a cell lysate. Upon centrifugation, the supernatant thus obtained was loaded onto a nickel-affinity column. After elution, a fraction containing O-GlcNAcse was collected and the enzyme contained therein was further purified by gel filtration using a Superdex 6 column. See Dennis et al., Nat Struct Mol Biol 2006, 13: 365-71. The purified protein was concentrated using a 10 kDa-cutoff concentrator and dialyzed against 20 mM HEPES (pH 7.5).
The reaction conditions for each enzyme are shown below:
O-GlcNAcase: reaction mixture (0.5 nM O-GlcNAcase (200 μL) in 50 mM citric acid, 100 mM NaCl, 0.1% BSA, 0.05-1.5 mM substrate, pH 4.25) was incubated at 30° C. for 25 minutes. The enzyme activity at different time points was determined by measuring the levels of the fluorescent signals (excitation wavelength: 360 nm; emission wavelength: 460 nm) released from 4-methylumbelliferone, a product of the enzyme reaction.
(§1) In these reactions, the substrate concentrations were three to five fold of the concentration used for determining KM (absent compounds) and the ratio between the enzyme and the compound was 0.1-0.5 nM to 0.3 nM-200 uM. The data thus obtained were analyzed by the Lineweaver-Burk plot. The K1 values were determined by the double reciprocal plot (1/V vs. 1/[S]). More specifically, the Km values for each enzyme in the presence of one of the test compounds first determined and these values were further plotted in view of the concentrations of the compound. K1 was determined by calculating the negative value of the resulting x-intercept. The selectivity of each compound was calculated by the formula: K1 O-GlcNAcase/K1 Hex B.

Human HEX B = target: T1, Human HEX B (Homo sapiens, UniProt P07686); experiment: Michaelis-Menten/Lineweaver-Burk kinetic inhibition of Hex B with 4MU-NAG substrate; assay type: biochemical
T1 construct: Hex B protein (isolated from human placenta) was purchased from Sigma Co; purchased Sigma Co; host or cells: human placenta
T1 sequence (P07686 315-556 limits assumed): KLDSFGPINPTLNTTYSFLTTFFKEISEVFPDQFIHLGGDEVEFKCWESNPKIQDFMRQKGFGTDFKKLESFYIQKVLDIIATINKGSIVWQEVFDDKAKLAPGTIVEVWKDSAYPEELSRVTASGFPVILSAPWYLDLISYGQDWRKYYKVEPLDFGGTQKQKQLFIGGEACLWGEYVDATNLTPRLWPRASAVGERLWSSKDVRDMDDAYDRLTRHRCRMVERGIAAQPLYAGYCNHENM
T1 sequence (P07686 122-311 limits assumed): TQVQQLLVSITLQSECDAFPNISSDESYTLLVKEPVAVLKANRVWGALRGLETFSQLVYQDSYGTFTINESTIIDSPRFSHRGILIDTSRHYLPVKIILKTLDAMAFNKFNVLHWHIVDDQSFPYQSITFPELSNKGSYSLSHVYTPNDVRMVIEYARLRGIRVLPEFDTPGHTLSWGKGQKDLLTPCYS
T1 sequence (P07686 50-107 partner limits assumed): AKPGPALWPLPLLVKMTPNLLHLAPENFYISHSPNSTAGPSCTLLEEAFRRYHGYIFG
Protocol: Hex B protein (isolated from human placenta) was purchased from Sigma Co.
Both O-GlcNAcase and Hex B were subjected to Michaelis-Menton kinetic analysis to determine the kinetics of their enzymatic activity in the presence of absence of Compounds 1-5 and Compound ix, using 4-methylumbelliferyl-N-acetyl-β-D-glucosaminide (4MU-NAG; purchased from Sigma Co.) as the substrate (a fluorogenic substrate). The reaction conditions for each enzyme are shown below:
Hex B: reaction mixture (0.1 nM Hex B (200 μL), 50 mM NaH2PO4, 100 mM NaCl, 0.1% BSA, 0.05-1.5 mM substrate, pH 6.5) was incubated at 30° C. for 25 minutes. The reaction was terminated by addition of a 3× quenching buffer (200 mM sodium glycine buffer, pH 10.8). The enzyme activity was determined as described above.
as §1, with “To determine the effects of Compounds 1-5 and Compound ix on the kinetics of both enzymes, the enzyme reactions described above were performed in the presence of each compound at different concentrations. In” for “In”

Human O-GlcNAcase = target: T2, Human O-GlcNAcase (Homo sapiens, UniProt O60502); experiment: Inhibition of human O-GlcNAcase; assay type: biochemical; details: Table 2; for Selectivity (KI O-GlcNAcase/KI HEX): Human O-GlcNAcase over human HEX B; for Ki: Human O-GlcNAcase
T2 construct: made in house
T2 sequence (O60502 1-916): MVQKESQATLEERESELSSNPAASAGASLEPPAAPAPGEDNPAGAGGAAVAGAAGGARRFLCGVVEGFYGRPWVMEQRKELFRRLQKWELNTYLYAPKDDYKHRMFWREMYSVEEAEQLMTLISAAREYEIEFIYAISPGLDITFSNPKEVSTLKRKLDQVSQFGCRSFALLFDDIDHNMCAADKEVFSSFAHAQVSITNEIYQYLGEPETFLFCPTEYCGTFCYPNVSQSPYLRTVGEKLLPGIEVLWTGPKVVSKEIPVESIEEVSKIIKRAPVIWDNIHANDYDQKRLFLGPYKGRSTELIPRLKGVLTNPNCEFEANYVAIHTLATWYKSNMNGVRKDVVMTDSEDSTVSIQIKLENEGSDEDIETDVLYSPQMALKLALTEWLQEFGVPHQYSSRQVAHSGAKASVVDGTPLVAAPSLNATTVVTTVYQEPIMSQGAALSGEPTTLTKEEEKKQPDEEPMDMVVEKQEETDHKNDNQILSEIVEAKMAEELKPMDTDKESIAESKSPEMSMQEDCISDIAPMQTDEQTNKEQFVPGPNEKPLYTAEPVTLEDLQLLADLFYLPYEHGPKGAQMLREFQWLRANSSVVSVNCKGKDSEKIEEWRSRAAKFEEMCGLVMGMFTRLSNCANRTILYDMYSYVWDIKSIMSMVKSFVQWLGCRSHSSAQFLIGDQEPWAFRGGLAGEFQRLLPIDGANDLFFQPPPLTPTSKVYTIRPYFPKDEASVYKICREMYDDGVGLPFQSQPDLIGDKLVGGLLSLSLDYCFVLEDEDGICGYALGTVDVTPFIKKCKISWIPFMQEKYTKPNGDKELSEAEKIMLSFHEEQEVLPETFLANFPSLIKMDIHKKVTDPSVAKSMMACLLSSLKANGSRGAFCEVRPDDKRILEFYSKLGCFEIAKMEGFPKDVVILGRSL
Protocol: Human O-GlcNAcase was also prepared and tested according to the procedures described in Gao et al., J. Biol. Chem. 2001, 276, 9838-9845 and Macauley et al., J. Am. Chem. Soc. 2005, 127, 17202-17203.

[2] = target: T3, O-GlcNAcase in human 293T cells (Homo sapiens, UniProt O60502); experiment: Level of protein-associated O-GlcNAc in treated 293T cells by Western blot; assay type: cell-based; details: 10 μM, 16 hours, Western blot with anti-O-GlcNAc antibody, versus un-treated cells
T3 construct: endogenous in cells; host or cells: 293T cells
T3 sequence (O60502 1-916): T2 sequence (O60502 1-916)
Protocol: Additionally, Compounds 1 and 3 were tested to determine their inhibitory effects on O-GlcNAcase in human 293T cells. The cells were treated with 10 μM Compound 1 or 3 for 16 hours. The level of protein-associated O-GlcNAc moieties in the treated cells was determined by Western blot analysis using an anti-O-GlcNAc antibody. See Macauley et al., J. Biol. Chem. 2005, 280, 25313-25322. Two known O-GlcNAcase inhibitors, PUGNAc (10 μM) and STZ (10 μM), were used as positive controls (Hanover et al., Arch Biochem. Biophys. 1999, 362, 38-45 and Rao et al., EMBO J. 2006, 25, 1569-1578).

BV2 cells = experiment: GM2 ganglioside level in BV2 cells by high performance thin-layer chromatography; assay type: cell-based, mouse; details: 200 nM, 10 days, HPTLC
Protocol: Glycosphingolipids (e.g., GM2) were extracted from the treated cells with chloroform/methanol and the ganglioside levels were determined by high performance thin-layer chromatography.

Bacteroids fragilis O-GlcNAcase, sequence (Q5L8V6 entry or part of it): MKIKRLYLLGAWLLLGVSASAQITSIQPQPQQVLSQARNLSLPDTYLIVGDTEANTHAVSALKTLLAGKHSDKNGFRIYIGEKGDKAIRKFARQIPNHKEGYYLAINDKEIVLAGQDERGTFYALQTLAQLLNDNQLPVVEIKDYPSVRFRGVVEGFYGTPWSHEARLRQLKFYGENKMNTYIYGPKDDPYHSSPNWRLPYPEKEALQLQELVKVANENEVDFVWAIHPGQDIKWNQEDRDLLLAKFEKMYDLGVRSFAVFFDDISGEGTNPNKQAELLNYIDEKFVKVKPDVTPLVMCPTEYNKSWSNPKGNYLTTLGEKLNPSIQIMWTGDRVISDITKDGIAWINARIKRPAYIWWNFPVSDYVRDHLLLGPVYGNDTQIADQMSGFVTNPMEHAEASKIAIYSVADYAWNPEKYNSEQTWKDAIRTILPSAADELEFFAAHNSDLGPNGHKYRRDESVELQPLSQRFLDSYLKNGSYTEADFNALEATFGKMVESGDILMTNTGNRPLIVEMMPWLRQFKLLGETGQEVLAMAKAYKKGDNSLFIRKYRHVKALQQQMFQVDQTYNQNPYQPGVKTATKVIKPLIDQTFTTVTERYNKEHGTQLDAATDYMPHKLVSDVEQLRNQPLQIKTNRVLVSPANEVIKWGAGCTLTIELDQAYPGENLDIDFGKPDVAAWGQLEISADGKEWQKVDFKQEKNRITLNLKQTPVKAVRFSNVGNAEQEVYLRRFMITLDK

Structure (SMILES) | Ki [1] [µM] | Selectivity (KI O-GlcNAcase/KI HEX) [1] | Ki (Human HEX B; Table 1) [µM] | Ki (Human HEX B; Table 2) [µM] | Selectivity (KI O-GlcNAcase/KI HEX) (Human O-GlcNAcase) | Ki (Human O-GlcNAcase) [µM] | level of O-GlcNAc moieties in treated cells [2] | GM2 level in treated cells (BV2 cells)
CC(=O)NC1CN(CCCCCCCN)C(CO)C(O)C1O [Compound 1, N-[1(7-Amino-heptyl)]-2-acetamido-1,2,5-trideoxy-1,5-imino-D-glucitol] | 75.3 ± 9.13 | 36,000 | 0.0021 ± 0.00038 | 0.0021 ± 0.00038 | 51,000 | 108 ± 9.17 | not significantly different than that in un-treated cells | –
COc1ccc(CNCCCCCCCN2CC(NC(C)=O)C(O)C(O)C2CO)cc1 (stereo not drawn) [Compound 2] | 72.1 ± 0.88 | 60,000 | 0.0012 ± 0.00023 | 0.0012 ± 0.00023 | 85,000 | 102 ± 6.47 | – | –
COc1ccc(CN(CCCCCCCN2CC(NC(C)=O)C(O)C(O)C2CO)Cc2ccc(OC)cc2)cc1 (stereo not drawn) [Compound 3] | 129 ± 2.55 | 190,000 | 0.00069 ± 7.7e-05 | 0.00069 ± 7.7e-05 | 250,000 | 176 ± 2.15 | not significantly different than that in un-treated cells | significantly increased
CC(=O)NC1CN(CCCCCCCN=[N+]=[N-])C(CO)C(O)C1O (stereo not drawn) [Compound 4] | 95.7 ± 8.37 | 56 | 1.7 ± 0.56 | 1.7 ± 0.56 | 91 | 155 ± 9.87 | – | –
CC(=O)N[C@H]1/C(=N/OC(=O)Nc2ccccc2)O[C@H](CO)[C@@H](O)[C@@H]1O [PUGNAc, reference compound] | – | – | – | – | – | – | notably increased | only modestly increased
CN(N=O)C(=O)N[C@@H]1[C@@H](O)[C@H](O)[C@@H](CO)O[C@@H]1O [STZ, reference compound] | – | – | – | – | – | – | notably increased | –
